Biological target: rat brain cortical membranes (GABA receptor complex, [35S]-TBPS binding)
Assay: Steroid inhibition of [35S]-TBPS binding
Settings: 3 nM [35S]-TBPS, in the presence of 5 mM GABA
Method: [^35S]-t-Butylbicyclophosphorothionate (TBPS) binding assays using rat brain cortical membranes in the presence of 5 mM GABA has been described (Gee et al, J Pharmacol. Exp. Ther. 1987, 241, 346-353; Hawkinson et al, Mol. Pharmacol. 1994, 46, 977-985; Lewin, A. H et al., Mol. Pharmacol. 1989, 35, 189-194).
Briefly, cortices are rapidly removed following decapitation of carbon dioxide-anesthetized Sprague-Dawley rats (200-250 g). The cortices are homogenized in 10 volumes of ice-cold 0.32 M sucrose using a glass/teflon homogenizer and centrifuged at 1500×g for 10 min at 4° C. The resultant supernatants are centrifuged at 10,000×g for 20 min at 4° C. to obtain the P2 pellets. The P2 pellets are resuspended in 200 mM NaCl/50 mM Na—K phosphate pH 7.4 buffer and centrifuged at 10,000×g for 10 min at 4° C. This washing procedure is repeated twice and the pellets are resuspended in 10 volumes of buffer. Aliquots ([…]) of the membrane suspensions are incubated with 3 nM [^35S]-TBPS and […] aliquots of test drug dissolved in dimethyl sulfoxide (DMSO) (final 0.5%) in the presence of 5 mM GABA. The incubation is brought to a final volume of 1.0 mL with buffer. Nonspecific binding is determined in the presence of […] and ranged from 15 to 25%. Following a 90 min incubation at room temp, the assays are terminated by filtration through glass fiber filters (Schleicher and Schuell No. 32) using a cell harvester (Brandel) and rinsed three times with ice-cold buffer. Filter bound radioactivity is measured by liquid scintillation spectrometry. Non-linear curve fitting of the overall data for each drug averaged for each concentration is done using Prism (GraphPad). […] The concentration of test compound producing 50% inhibition (IC50) of specific binding and the maximal extent of inhibition (Imax) are determined for the individual experiments with the same model used for the overall data and then the means±SEMs of the individual experiments are calculated.
Various compounds are or can be screened to determine their potential as modulators of [^35S]-TBPS binding in vitro. These assays are or can be performed in accordance with the above discussed procedures.

| SMILES | IC50 |
| --- | --- |
| CO[C@@H]1C[C@H]2[C@@H](CC[C@H]3C[C@](C)(O)CC[C@@]32C)[C@@H]2CC[C@H](C(=O)Cn3cc4ccncc4n3)[C@@]12C [Compound 62] | 10 to 50 nM |
| CO[C@H]1C[C@H]2[C@@H](CC[C@H]3C[C@](C)(O)CC[C@@]32C)[C@@H]2CC[C@H](C(=O)Cn3cc4ccncc4n3)[C@@]12C [Compound 54] | ≥ 500 nM |
| CO[C@H]1C[C@H]2[C@@H](CC[C@H]3C[C@](C)(O)CC[C@@]32C)[C@@H]2CC[C@@H](C(C)=O)[C@@]12C [Compound 51] | ≥ 500 nM |
| COc1ccc2nn(CC(=O)[C@H]3[C@H](C)C[C@H]4[C@@H]5CC[C@H]6C[C@](C)(O)CC[C@]6(C)[C@H]5CC[C@@]43C)nc2c1 [Compound 67] | 10 to 50 nM |
| CO[C@@H]1C[C@H]2[C@@H](CC[C@H]3C[C@](C)(O)CC[C@@]32C)[C@@H]2CC[C@H](C(=O)Cn3cc(C#N)cn3)[C@@]12C [Compound 44] | 10 to 50 nM |
| CC(C)[C@@H]1C[C@H]2[C@@H]3CC[C@H]4C[C@](C)(O)CC[C@]4(C)[C@H]3CC[C@]2(C)[C@H]1C(=O)Cn1cc2ccncc2n1 [Compound 76] | ≥ 500 nM |
| CO[C@H]1CC[C@H]2[C@@H]3[C@H](C)C[C@H]4C[C@](C)(O)CC[C@]4(C)[C@H]3CC[C@]12C [Compound 3] | ≥ 500 nM |
| CO[C@@H]1C[C@H]2[C@@H](CC[C@H]3C[C@](C)(O)CC[C@@]32C)[C@@H]2CC[C@H](C(=O)Cn3ncc4ccncc43)[C@@]12C [Compound 63] | 100 to 500 nM |
| C[C@H]1C[C@H]2C[C@](C)(O)CC[C@]2(C)[C@H]2CC[C@]3(C)[C@@H](C(=O)Cn4ncc5ccncc54)CC[C@H]3[C@H]12 [Compound 9] | 100 to 500 nM |
| COc1ccc2nnn(CC(=O)[C@H]3[C@H](C)C[C@H]4[C@@H]5CC[C@H]6C[C@](C)(O)CC[C@]6(C)[C@H]5CC[C@@]43C)c2c1 [Compound 68] | 10 to 50 nM |
| Cc1nnnn1CC(=O)[C@H]1CC[C@H]2[C@@H]3[C@H](C)C[C@H]4C[C@](C)(O)CC[C@]4(C)[C@H]3CC[C@]12C [Compound 36] | ≥ 500 nM |
| COC[C@@H]1C[C@H]2C[C@](C)(O)CC[C@]2(C)[C@H]2CC[C@]3(C)[C@@H](C(=O)Cn4nnc5ccc(OC)cc54)CC[C@H]3[C@H]12 [Compound 19] | ≥ 500 nM |
| COC[C@H]1C[C@H]2C[C@](C)(O)CC[C@]2(C)[C@H]2CC[C@]3(C)[C@@H](C(=O)Cn4nnc5cc(OC)ccc54)CC[C@H]3[C@H]12 [Compound 17] | ≥ 500 nM |
| CC[C@@H]1C[C@H]2[C@@H]3CC[C@H]4C[C@](C)(O)CC[C@]4(C)[C@H]3CC[C@]2(C)[C@H]1C(C)=O [Compound 65] | ≥ 500 nM |
| CO[C@@H]1C[C@H]2C[C@](C)(O)CC[C@]2(C)[C@H]2CC[C@]3(C)[C@@H](C(C)=O)CC[C@H]3[C@H]12 [Compound 29] | ≥ 500 nM |
| Cc1nnn(CC(=O)[C@H]2CC[C@H]3[C@@H]4[C@H](C)C[C@H]5C[C@](C)(O)CC[C@]5(C)[C@H]4CC[C@]23C)n1 [Compound 34] | ≥ 500 nM |
| C[C@@H]1C[C@H]2C[C@](C)(O)CC[C@]2(C)[C@H]2CC[C@]3(C)[C@@H](C(=O)Cn4cc(C#N)cn4)CC[C@H]3[C@H]12 [Compound 38] | 100 to 500 nM |
| CC(=O)[C@H]1[C@H](C(C)C)C[C@H]2[C@@H]3CC[C@H]4C[C@](C)(O)CC[C@]4(C)[C@H]3CC[C@@]21C [Compound 73] | ≥ 500 nM |
| C[C@@]1(O)CC[C@@]2(C)[C@@H](CC[C@@H]3[C@@H]2C[C@@H](O)[C@]2(C)[C@@H](C(=O)Cn4ncc5ccncc54)CC[C@@H]32)C1 [Compound 50] | ≥ 500 nM |
| COC[C@@H]1C[C@H]2C[C@](C)(O)CC[C@]2(C)[C@H]2CC[C@]3(C)[C@@H](C(=O)Cn4nnc5cc(OC)ccc54)CC[C@H]3[C@H]12 [Compound 20] | ≥ 500 nM |
| CC(=O)[C@H]1CC[C@H]2[C@@H]3[C@H](O)C[C@H]4C[C@](C)(O)CC[C@]4(C)[C@H]3CC[C@]12C [Compound 25] | ≥ 500 nM |

| SMILES | IC50 |
| --- | --- |
| C[C@@H]1C[C@H]2C[C@](C)(O)CC[C@]2(C)[C@H]2CC[C@]3(C)[C@@H](C(=O)Cn4ncc5ccncc54)CC[C@H]3[C@H]12 [Compound 10] | ≥ 500 nM |
| CO[C@H]1C[C@H]2C[C@](C)(O)CC[C@]2(C)[C@H]2CC[C@]3(C)[C@@H](C(=O)Cn4cc(C#N)cn4)CC[C@H]3[C@H]12 [Compound 31] | ≥ 500 nM |
| CC(C)[C@@H]1C[C@H]2[C@@H]3CC[C@H]4C[C@](C)(O)CC[C@]4(C)[C@H]3CC[C@]2(C)[C@H]1C(=O)Cn1ncc2ccncc21 [Compound 75] | ≥ 500 nM |
| CO[C@@H]1C[C@H]2[C@@H](CC[C@@H]3C[C@](C)(O)CC[C@@H]32)[C@@H]2CC[C@H](C(C)=O)[C@@]12C [Compound 56] | 50 to 100 nM |
| CC[C@@H]1C[C@H]2[C@@H]3CC[C@H]4C[C@](C)(O)CC[C@]4(C)[C@H]3CC[C@]2(C)[C@H]1C(=O)Cn1nnc2cc(OC)ccc21 [Compound 72] | ≥ 500 nM |
| CC(=O)[C@H]1CC[C@H]2[C@@H]3[C@H](C)C[C@H]4C[C@](C)(O)CC[C@]4(C)[C@H]3CC[C@]12C [Compound 5] | ≥ 500 nM |
| C[C@H]1C[C@H]2C[C@](C)(O)CC[C@]2(C)[C@H]2CC[C@]3(C)[C@@H](C#N)CC[C@H]3[C@H]12 [Compound 2] | ≥ 500 nM |
| COC[C@@H]1C[C@H]2C[C@](C)(O)CC[C@]2(C)[C@H]2CC[C@]3(C)[C@@H](C(=O)Cn4cc5ccncc5n4)CC[C@H]3[C@H]12 [Compound 24] | ≥ 500 nM |
| COC[C@H]1C[C@H]2C[C@](C)(O)CC[C@]2(C)[C@H]2CC[C@]3(C)[C@@H](C(C)=O)CC[C@H]3[C@H]12 [Compound 11] | ≥ 500 nM |
| C[C@@]1(O)CC[C@@]2(C)[C@@H](CC[C@@H]3[C@@H]2C[C@@H](O)[C@]2(C)[C@@H](C(=O)Cn4cc5ccncc5n4)CC[C@@H]32)C1 [Compound 49] | 100 to 500 nM |
| CC[C@@H]1C[C@H]2[C@@H]3CC[C@H]4C[C@](C)(O)CC[C@]4(C)[C@H]3CC[C@]2(C)[C@H]1C(=O)Cn1cc(C#N)cn1 [Compound 74] | ≥ 500 nM |
| CC(C)[C@@H]1C[C@H]2[C@@H]3CC[C@H]4C[C@](C)(O)CC[C@]4(C)[C@H]3CC[C@]2(C)[C@H]1C(=O)Cn1cc(C#N)cn1 [Compound 88] | ≥ 500 nM |
| COc1ccc2nn(CC(=O)[C@H]3[C@H](C(C)C)C[C@H]4[C@@H]5CC[C@H]6C[C@](C)(O)CC[C@]6(C)[C@H]5CC[C@@]43C)nc2c1 [Compound 77] | ≥ 500 nM |
| CO[C@@H]1C[C@H]2[C@@H](CC[C@@H]3C[C@](C)(O)CC[C@@H]32)[C@@H]2CC[C@H](C(=O)Cn3nnnc3C)[C@@]12C [Compound 59] | 100 to 500 nM |
| COC[C@@H]1C[C@H]2C[C@](C)(O)CC[C@]2(C)[C@H]2CC[C@]3(C)[C@@H](C(C)=O)CC[C@H]3[C@H]12 [Compound 12] | ≥ 500 nM |
| COC[C@@H]1C[C@H]2C[C@](C)(O)CC[C@]2(C)[C@H]2CC[C@]3(C)[C@@H](C(=O)Cn4cc(C#N)cn4)CC[C@H]3[C@H]12 [Compound 14] | ≥ 500 nM |
| COC[C@@H]1C[C@H]2C[C@](C)(O)CC[C@]2(C)[C@H]2CC[C@]3(C)[C@@H](C(=O)Cn4nc5ccc(OC)cc5n4)CC[C@H]3[C@H]12 [Compound 18] | ≥ 500 nM |
| COC[C@H]1C[C@H]2C[C@](C)(O)CC[C@]2(C)[C@H]2CC[C@]3(C)[C@@H](C(=O)Cn4cc5ccncc5n4)CC[C@H]3[C@H]12 [Compound 21] | ≥ 500 nM |
| CO[C@H]1C[C@H]2[C@@H](CC[C@H]3C[C@](C)(O)CC[C@@]32C)[C@@H]2CC[C@H](C(=O)Cn3cc(C#N)cn3)[C@@]12C [Compound 53] | ≥ 500 nM |
| CC[C@@H]1C[C@H]2[C@@H]3CC[C@H]4C[C@](C)(O)CC[C@]4(C)[C@H]3CC[C@]2(C)[C@H]1C(=O)Cn1nnc2ccc(OC)cc21 [Compound 71] | ≥ 500 nM |

Reference: patent US20250092084A1, “C7, C12, AND C16 SUBSTITUTED NEUROACTIVE STEROIDS AND THEIR METHODS OF USE” (Sage Therapeutics, Inc., priority 2016, published 2025)
